In US20240132484A1, “BROAD SPECTRUM ANTIVIRAL COMPOUNDS TARGETING THE SKI COMPLEX” (priority 2020, published 2024):
Several values for one entry are separate records, joined by “and”; a condition that tells them apart may be missing. Equal values may be shown once. Entries after “also recorded” stand apart in the source; their conditions may differ. Read-outs that look alike come from different tables or passages of the source.

Assays:
SARS2 = format: cell-based, SARS-CoV-2; details: for Infection Data, Average, Mean percentage infection relative to DMSO control: Average of Exp 1 (SMW491) and Exp 2 (SMW492); for Infection Data, Percentage Infection Relative to Appropriate DMSO Control: single well, avg background subtraction
cells (nuclei count) = details: for Toxicity Data, Average, Mean percentage relative to DMSO control: Average of Exp 1 (SMW491) and Exp 2 (SMW492); for Toxicity Data, Percentage Relative to Appropriate DMSO Control: single well

COc1ccc(CNCCc2ccccc2F)c(OCC(O)CN2CCN(C)CC2)c1 (stereo not shown) [SILCS45]
SARS2 antiviral activity (SARS2): improved activity over SILCS41; also recorded: improved properties over SILCS46 | Infection Data, Average, Mean percentage infection relative to DMSO control (SARS2; n=4, 1 uM): 54.68% | Infection Data, Average, Mean percentage infection relative to DMSO control (SARS2; n=4, 5 uM): −1.00% | Infection Data, Average, Mean percentage infection relative to DMSO control (SARS2; n=4, 10 uM): 3.88% | Infection Data, Average, Mean percentage infection relative to DMSO control (SARS2; n=4, 25 uM): −1.28% | Infection Data, Average, Mean percentage infection relative to DMSO control (SARS2; n=4, 50 uM): 3.57% | Infection Data, Percentage Infection Relative to Appropriate DMSO Control (SARS2; Exp 1 (SMW491), 1 uM): 102.92% and 112.49% | Infection Data, Percentage Infection Relative to Appropriate DMSO Control (SARS2; Exp 1 (SMW491), 5 uM): −1.31% and −0.48% | Infection Data, Percentage Infection Relative to Appropriate DMSO Control (SARS2; Exp 1 (SMW491), 10 uM): 0.12% and −3.09% | Infection Data, Percentage Infection Relative to Appropriate DMSO Control (SARS2; Exp 1 (SMW491), 25 uM): −0.41% and −2.68% | Infection Data, Percentage Infection Relative to Appropriate DMSO Control (SARS2; Exp 1 (SMW491), 50 uM): 1.17% and −2.53% | Infection Data, Percentage Infection Relative to Appropriate DMSO Control (SARS2; Exp 2 (SMW492), 1 uM): 3.72% and −0.43% | Infection Data, Percentage Infection Relative to Appropriate DMSO Control (SARS2; Exp 2 (SMW492), 5 uM): −2.43% and 0.22% | Infection Data, Percentage Infection Relative to Appropriate DMSO Control (SARS2; Exp 2 (SMW492), 10 uM): 7.69% and 10.80% | Infection Data, Percentage Infection Relative to Appropriate DMSO Control (SARS2; Exp 2 (SMW492), 25 uM): 0.00% and −2.03% | Infection Data, Percentage Infection Relative to Appropriate DMSO Control (SARS2; Exp 2 (SMW492), 50 uM): 7.94% and 7.68% | Percentage Inhibition Average 1 μM (SARS2; SARS2, 1 μM): 45.32% | Screening data (Relative infection to DMSO controls) Average 1 μM (SARS2; SARS2, 1 μM, 100=DMSO control): 54.68 | Percentage Inhibition Average 5 μM (SARS2; SARS2, 5 μM): 101.00% | Screening data (Relative infection to DMSO controls) Average 5 μM (SARS2; SARS2, 5 μM, 100=DMSO control): −1.00 | Percentage Inhibition Average 10 μM (SARS2; SARS2, 10 μM): 96.12% | Screening data (Relative infection to DMSO controls) Average 10 μM (SARS2; SARS2, 10 μM, 100=DMSO control): 3.88 | Percentage Inhibition Average 25 μM (SARS2; SARS2, 25 μM): 101.28% | Screening data (Relative infection to DMSO controls) Average 25 μM (SARS2; SARS2, 25 μM, 100=DMSO control): −1.28 | Percentage Inhibition Average 50 μM (SARS2; SARS2, 50 μM): 96.43% | Screening data (Relative infection to DMSO controls) Average 50 μM (SARS2; SARS2, 50 μM, 100=DMSO control): 3.57 | Average (relative infection to DMSO over the 5 tested concentrations) (SARS2; SARS2, average over 1 to 50 uM, 100=DMSO control): 11.97 | SARS2 antiviral activity (SARS2; listed as D45): more potent than D46 | Relative cell count to DMSO controls, Average 1 μM (cells (nuclei count); 1 μM, toxicity data, 100=DMSO control): 116.96 | Relative cell count to DMSO controls, Average 5 μM (cells (nuclei count); 5 μM, toxicity data, 100=DMSO control): 123.47 | Relative cell count to DMSO controls, Average 10 μM (cells (nuclei count); 10 μM, toxicity data, 100=DMSO control): 131.34 | Relative cell count to DMSO controls, Average 25 μM (cells (nuclei count); 25 μM, toxicity data, 100=DMSO control): 119.79 | Relative cell count to DMSO controls, Average 50 μM (cells (nuclei count); 50 μM, toxicity data, 100=DMSO control): 125.46 | Toxicity Data, Average, Mean percentage relative to DMSO control (cells (nuclei count); n=4, 1 uM): 116.96% | Toxicity Data, Average, Mean percentage relative to DMSO control (cells (nuclei count); n=4, 5 uM): 123.47% | Toxicity Data, Average, Mean percentage relative to DMSO control (cells (nuclei count); n=4, 10 uM): 131.34% | Toxicity Data, Average, Mean percentage relative to DMSO control (cells (nuclei count); n=4, 25 uM): 119.79% | Toxicity Data, Average, Mean percentage relative to DMSO control (cells (nuclei count); n=4, 50 uM): 125.46% | Toxicity Data, Percentage Relative to Appropriate DMSO Control (cells (nuclei count); Exp 1 (SMW491), 1 uM): 94% and 101% | Toxicity Data, Percentage Relative to Appropriate DMSO Control (cells (nuclei count); Exp 1 (SMW491), 5 uM): 121% and 114% | Toxicity Data, Percentage Relative to Appropriate DMSO Control (cells (nuclei count); Exp 1 (SMW491), 10 uM): 111% and 127% | Toxicity Data, Percentage Relative to Appropriate DMSO Control (cells (nuclei count); Exp 1 (SMW491), 25 uM): 95% and 123% | Toxicity Data, Percentage Relative to Appropriate DMSO Control (cells (nuclei count); Exp 1 (SMW491), 50 uM): 129% and 121% | Toxicity Data, Percentage Relative to Appropriate DMSO Control (cells (nuclei count); Exp 2 (SMW492), 1 uM): 139% and 133% | Toxicity Data, Percentage Relative to Appropriate DMSO Control (cells (nuclei count); Exp 2 (SMW492), 5 uM): 133% and 126% | Toxicity Data, Percentage Relative to Appropriate DMSO Control (cells (nuclei count); Exp 2 (SMW492), 10 uM): 137% and 151% | Toxicity Data, Percentage Relative to Appropriate DMSO Control (cells (nuclei count); Exp 2 (SMW492), 25 uM): 135% and 127% | Toxicity Data, Percentage Relative to Appropriate DMSO Control (cells (nuclei count); Exp 2 (SMW492), 50 uM): 126% | Relative cell count to DMSO controls, Average (for correlation analysis) (cells (nuclei count); average value over the 5 tested concentrations (1 to 50 uM)): 123.40
